From patent US20220008402A1, “INCREASED E-CADHERIN EXPRESSION OR ACTIVITY FOR THE TREATMENT OF INFLAMMATORY DISEASES” (The Cleveland Clinic Foundation, priority 2020, published 2022)
Entries after “also recorded” stand apart in the source; their conditions may differ.

What was measured:
Assay type in all cases: cell-based, human
[1] = tested on: T84 cell monolayers; experiment: Immunofluorescence labeling of adherens and tight junctions (E-cadherin, ZO-1)
Procedure: FIG. 5: E-cadherin-enhancing drugs prevent cytokine-induced disruption of epithelial adherens junctions. Confluent T84 cell monolayers were pretreated with either vehicle, or ECU (10 μM) for 24 hours. Afterwards, cells were exposed to a combination of TNFα (10 ng/ml) and IFNγ (50 ng/ml) with and without ECU for 48 h. Cells were fixed and structure of adherens was determined by immunolabeling of E-cadherin. Arrows point on disruption of normal E-cadherin labeling in cytokine-exposed, vehicle-treated cells.
FIG. 6: E-cadherin-enhancing drugs prevent cytokine-induced disruption of epithelial tight junctions. Confluent T84 cell monolayers were pretreated with either vehicle, or ECU (10 μM) for 24 hours. Afterwards, cells were exposed to a combination of TNFα (10 ng/ml) and IFNγ (50 ng/ml) with or without ECU for 48 h. Cells were fixed and structure of tight junctions was determined by ZO-1 immunolabeling. Arrows point on disruption of normal ZO-1 labeling in cytokine-exposed, vehicle-treated cells.
In order to visualize structure of epithelial junctions, cultured colonic epithelial cell monolayers were fixed and permeabilized with 100% methanol at −20° C. Fixed samples were blocked for 60 min in HBSS containing 1% bovine serum albumin, followed by a 60-min incubation with primary antibodies against E-cadherin (BD Bioscience) and ZO-1 (Thermo-Fisher). Samples were then washed and incubated with Alexa-Fluor-488-conjugated donkey anti-rabbit and Alexa-Fluor-555—conjugated donkey anti-mouse secondary antibodies for 60 min, rinsed with blocking buffer, and mounted on slides with ProLong Antifade mounting reagent (Thermo-Fisher). Immunolabeled cell monolayers were imaged using a Leica SP8 confocal microscope (Wentzler, Germany). The Alexa Fluor 488 and 555 signals were acquired sequentially in frame-interlace mode to eliminate cross talk between channels. Images were processed using Adobe Photoshop. The images shown are representative of at least three experiments, with multiple images taken per slide. […]

[2] = tested on: SK-0015 cell monolayers; experiment: Epithelial barrier permeability in vitro (TEER, FITC-dextran flux), steady state; conditions: 10 μM
Procedure: (§1) FIG. 1: E-cadherin-enhancing drugs decrease ionic permeability of model colonic epithelial cell monolayers. Confluent T84 (A), HT-29cF8 (B) and SK-0015 (C) cell monolayers were treated for indicated times with either vehicle, E-cadherin upregulator (ECU, 10 μM), or ML327 (10 μM). Transepithelial electrical resistance (TEER) of the cell monolayers was measured before and during the drug treatment. Data is presented as mean ±SE (n=3); *P<0.05.
(§2) FIG. 2: E-cadherin-enhancing drugs decrease colonic epithelial permeability to large molecules. Confluent T84 (A), HT-29cF8 (B) and SK-C015 (C) cell monolayers were treated with either vehicle, ECU, or ML327, as described in the FIG. 1 legend. Trans-monolayer flux of FITC-dextran was determined at the end of the drug treatment. Data is presented as mean ±SE (n=3); **P<0.05 ***P<0.01.
(§3) Transepithelial electrical resistance (TEER) of cultured T84, HT-29 and SK-C015 intestinal epithelial cell monolayers was measured using an EVOMX voltohmmeter (World Precision Instruments, Sarasota, Fla.). Cells were plated on collagen-coated transwell filters (pore size 3 μm, Thermo-Fisher). The resistance of cell-free collagen-coated filters was subtracted from each experimental point. An in vitro dextran flux assay was performed by a following commonly-used protocol. Intestinal epithelial cell monolayers growing on transwell filters were apically exposed to 1 mg/ml of FITC-labeled dextran (4,000 Da) in HEPES-buffered Hanks balanced salt solution (HBSS). After 120 min of incubation, HBSS samples were collected from the lower chamber, and FITC fluorescence intensity was measured using a Victor^3 V plate reader (Perkin Elmer, Waltham, Mass.) with excitation and emission wavelengths 485 and 544 nm, respectively. After subtracting the fluorescence of dextran-free HBSS the amount of FITC dextran translocated across the epithelial cell monolayer was calculated based on a calibration curve using Prism 5 software (GraphPad, La Jolla, Calif.).
(§4) One set of experiments examined the effects of E-cadherin upregulator (ECU) and ML327 on the barrier properties of normal model intestinal epithelial cell monolayers. Three different human colonic epithelial cell lines, namely, T84, SK-0015 and HT-29 cF8 cells, were used. Cells were plated on collagen-coated transwell filters and allowed to reach confluency and differentiate for 5-7 days after plating. Thereafter, cell monolayers were exposed to either ECU (10 μM), ML327 (10 μM) or vehicle (DMSO). Transepithelial electrical resistance (TEER) was measured before and at different times after addition of E-cadherin-enhancing drugs. A transepithelial flux of FITC-dextran was examined at the end of the drug exposure to evaluate epithelial permeability to large uncharged molecules.

[3] = tested on: HT-29 cF8 cell monolayers; experiment: as above; conditions: 10 μM
Procedure: as §1, §2, §3, §4

[4] = tested on: T84 cell monolayers; experiment: as above; conditions: 10 μM
Procedure: as §1, §2, §3, §4

[5] = 10 μM pretreatment 24 h, then TNFα 10 ng/ml + IFNγ 50 ng/ml, 48 h
[6] = at the end of the drug exposure
[7] = rapid (within 24 h) and sustained (up to 96 h), vs vehicle (DMSO)

Compound: O=C(NCCCCc1ccncc1)c1cc(-c2ccco2)on1 [ECU]
- Cytokine-induced adherens junction (AJ) disassembly, E-cadherin immunolabeling [1, 5]: dramatic suppression of cytokine-induced disruption of adherens junctions; also recorded: completely prevented cytokine-induced junctional disassembly
- Cytokine-induced tight junction (TJ) disassembly, ZO-1 immunolabeling [1, 5]: inhibition of cytokine-induced tight junction disruption; also recorded: completely prevented cytokine-induced junctional disassembly
- Normal AJ and TJ structure ([1]; 10 μM, without cytokines): little effect
- Transepithelial flux of FITC-dextran [2, 6]: significantly inhibited FITC-dextran flux
- Transepithelial electrical resistance (TEER) [2, 7]: increase in TEER
- Transepithelial flux of FITC-dextran [3, 6]: significantly inhibited FITC-dextran flux
- Transepithelial electrical resistance (TEER) ([3]; up to 96 h, vs vehicle (DMSO)): increase in TEER
- Transepithelial flux of FITC-dextran ([4]; at the end of the drug exposure, T84): significantly inhibited FITC-dextran flux
- Transepithelial electrical resistance (TEER) [4, 7]: increase in TEER
